In patent publication US9598433B2, “Hepatitis C virus inhibitors” (BRISTOL-MYERS SQUIBB COMPANY, priority 2012, dated 2017):
Where two headings read alike, the source gives them in different places.

What was measured:
[1] = rcm bond, 15-membered ring, Hoveyda-Grubbs II (5 mol%), DCE, 80.0 °C
[2] = test system: HCV genotype 1b (Con1) replicon in HUH-7 cells; assay: HCV replicon luciferase reporter assay, genotype 1b; format: cell-based; settings: Hepatitis C virus, 72 h, genotype 1b replicon, 3 days incubation, read-out: LE_1b (EC50, range)
Summary of the method: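 Replication was read as Renilla luciferase signal, using 7.5 μM EnduRen substrate with a 2-h incubation at 37 °C. The signal came from a HUH-7 line constitutively expressing a luciferase-tagged 1b (Con1) replicon carrying S1179I.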

[3] = test system: HCV genotype 1a (H77 strain) replicon in HUH-7 cells; assay: HCV replicon luciferase reporter assay, genotype 1a; format: cell-based; settings: Hepatitis C virus, 72 h, genotype 1a replicon, 3 days incubation, read-out: LE_1a (EC50, range)
Summary of the method: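 Stable HUH-7 line carrying luciferase-reporter genotype 1a (H77) replicon with adaptive NS3 P1496L and NS5A S2204I mutations; 3.0×10^3 cells/well in 4% FCS, 0.5% DMSO, twenty-point 3-fold titration, 3 days at 37 °C. Renilla luminescence with 7.5 μM EnduRen; EC50 by four-parameter logistic fit; CC50 by multiplexed Cell Titer-Blue.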

[4] = from C=CCC[C@@H](C)O[C@@H](C)C(NC(=O)OC(C)(C)C)C(=O)N1C[C@H](Oc2nccc3cc(OC)ccc23)C[C@H]1C(=O)N[C@]1(C(=O)NS(=O)(=O)C2(C)CC2)C[C@H]1C=C; rcm bond; 15-membered ring; Hoveyda-Grubbs II (5 mol%); DCE; 7.2 mM; 80.0 °C; 2.0 h

Structure (SMILES): CC[C@@H]1O[C@H](C)CC/C=C\[C@@H]2C[C@@]2(C(=O)NS(=O)(=O)C2(CF)CC2)NC(=O)[C@@H]2C[C@@H](O)CN2C(=O)[C@H]1NC(=O)OC(C)(C)C
- ring closure, isolated yield ([1]; from C=CCC[C@@H](C)O[C@@H](CC)[C@H](NC(=O)OC(C)(C)C)C(=O)N1C[C@H](O)C[C@H]1C(=O)N[C@]1(C(=O)NS(=O)(=O)C2(CF)CC2)C[C@H]1C=C, 9.2 mM, 16.0 h): 22%

Structure (SMILES): CC[C@@H]1O[C@H](C)CC/C=C\[C@@H]2C[C@@]2(C(=O)NS(=O)(=O)C2CC2)NC(=O)[C@@H]2C[C@@H](O)CN2C(=O)[C@H]1NC(=O)OC(C)(C)C
- ring closure, isolated yield ([1]; from C=CCC[C@@H](C)O[C@@H](CC)[C@H](NC(=O)OC(C)(C)C)C(=O)N1C[C@H](O)C[C@H]1C(=O)N[C@]1(C(=O)NS(=O)(=O)C2CC2)C[C@H]1C=C, 9.8 mM, 4.0 h): 54%

Structure (SMILES): CC[C@@H]1O[C@H](C)CCC=C[C@@H]2C[C@@]2(C(=O)NS(=O)(=O)C2(C)CC2)NC(=O)[C@@H]2C[C@@H](O)CN2C(=O)[C@H]1NC(=O)OC(C)(C)C
- ring closure, isolated yield ([1]; from C=CCC[C@@H](C)O[C@@H](CC)[C@H](NC(=O)OC(C)(C)C)C(=O)N1C[C@H](O)C[C@H]1C(=O)N[C@]1(C(=O)NS(=O)(=O)C2(C)CC2)C[C@H]1C=C, 8.7 mM, 74.0 h, 5 steps): 10%

Structure (SMILES): COc1ccc2c(O[C@@H]3C[C@H]4C(=O)N[C@]5(C(=O)NS(=O)(=O)C6(C)CC6)C[C@H]5/C=C\CC[C@@H](C)O[C@@H](C)[C@H](NC(=O)OC(C)(C)C)C(=O)N4C3)nccc2c1 [Compound 2001, tert-butyl ((2R,6S,7S,9R,13aS,14aR,16aS,Z)-2-((6-methoxyisoquinolin-1-yl)oxy)-7,9-dimethyl-14a-(((1-methylcyclopropyl)sulfonyl)carbamoyl)-5,16-dioxo-2,3,5,6,7,9,10,11,13a,14,14a,15,16,16a-tetradecahydro-1H-cyclopropa[i]pyrrolo[1,2-e][1,5,8]oxadiazacyclopentadecin-6-yl)carbamate]
- EC50 [2]: 1.01 to 5 nM
- EC50 [3]: 1.01 to 5 nM
- ring closure, yield after HPLC [4]: 30%
